Here are results for 26 molecules from patent publication US11358952B2, “Substituted 4-aminoisoindoline-1,3-dione compounds, compositions thereof, and methods of treatment therewith” (Celgene Corporation, priority 2018, dated 2022).

The assay deals with SU-DHL-4 cell line. Description: SU-DHL-4 cell proliferation assay (Cell Titer-Glo viability). The format is cell-based. Particulars: Homo sapiens; cell viability IC50 activity level, DLBCL cell line SU-DHL-4, 120 hours post-treatment; read-out: SU-DHL-4 Act. On the procedure: SU-DHL-4 Cell Proliferation Assay.
The following is an example of an assay that can be used to determine the anti-proliferative activity of Isoindolinedione Compounds in a DLBCL cell line, for example, the SU-DHL-4 cell line (Deutsche Sammlung von Mikroorganismen and Zellkulturen GmbH [DSMZ]: catalogue number ACC-495) at 120 hours post-treatment. The seeding density for SU-DHL-4 can be optimized to ensure assay linearity in 1536-well plates.
Increasing concentrations of test compounds (0.5 nM to 10 μM) were spotted in a 20-point dilution fashion (unevenly spaced data points) via an acoustic dispenser (EDC ATS-100) into an empty 1536-well plate. The DMSO concentration was kept constant for a final assay concentration of 0.1% DMSO. Prior to testing, SU-DHL-4 cells were grown in RPMI-1640 (Roswell Park Memorial Institute—1640) medium with 10% FBS (fetal bovine serum: HyClone) and expanded in culture flasks to provide sufficient amounts of starting material. Cells were then diluted to 500 cells per well in a 5 μL volume, and added directly to the compound-spotted 1536-well plates. Cells were allowed to grow for 120 hours in 5% CO2 at 37° C. At the time when exposure of cells to compound began (to), initial viable cell number was assessed via Cell Titer-Glo® Luminescent Cell Viability Assay at a 1 vol:2 vol ratio according to manufacturer's instructions (Promega Corporation, Madison, Wis.) by quantifying the level of luminescence generated by adenosine-5′-triphosphate (ATP) present in viable cells. After 120 hours, cell viability of the treated cells was assessed via Cell Titer-Gb® and read for luminescence. All growth inhibition curves were processed and evaluated using Activity Base (IDBS, Alameda, Calif.). Cell viability IC50 values were calculated using a four parameter logistic model (sigmoidal dose-response model): y=(A+((B−A)/(1+((C/x)^D)))) wherein: A=YMin B=YMax C=EC50 D=Hill slope IC50=the concentration of the compound when Y=50% of DMSO control Y=cell viability measured as luminescence unit, and x=concentration of compound.
`CC(C)C1CCN(Cc2ccc(CNc3cccc4c3C(=O)N(C3CCC(=O)NC3=O)C4=O)cc2)CC1` (centres unmarked) [Cpd 5, 2-(2,6-dioxopiperidin-3-yl)-4-(4-((4-isopropylpiperidin-1-yl)methyl)benzylamino)isoindoline-1,3-dione]: the IC50 was less than 200 nM. Regarding `Cc1cc(CNc2cccc3c2C(=O)N(C2CCC(=O)NC2=O)C3=O)ccc1CN1CCC(n2cccn2)CC1` (centres unmarked) [Cpd 56, 4-(4-((4-(1H-pyrazol-1-yl)piperidin-1-yl)methyl)-3-methylbenzylamino)-2-(2,6-dioxopiperidin-3-yl)isoindoline-1,3-dione], the IC50 was less than 200 nM. Turning to `O=C1CCC(N2C(=O)c3cccc(NCc4ccc(CN5CCC6(CCCO6)CC5)cc4)c3C2=O)C(=O)N1` (centres unmarked) [Cpd 90, 4-(4-(1-oxa-8-azaspiro[4.5]decan-8-ylmethyl)benzylamino)-2-(2,6-dioxopiperidin-3-yl)isoindoline-1,3-dione], the IC50 was less than 200 nM. As to `O=C1CCC(N2C(=O)c3cccc(NCc4ccc(CN5CCN(c6ccc(C(F)(F)F)nc6)CC5)cc4)c3C2=O)C(=O)N1` (centres unmarked) [Cpd 10, 2-(2,6-dioxopiperidin-3-yl)-4-(4-((4-(6-(trifluoromethyl)pyridin-3-yl)piperazin-1-yl)methyl)benzylamino)isoindoline-1,3-dione], the IC50 was in the range of 200 to 500 nM. Regarding `Cc1cc(CNc2cccc3c2C(=O)N(C2CCC(=O)NC2=O)C3=O)ccc1CN1CCN(CC2CC2)CC1` (centres unmarked) [Cpd 65, 4-(4-((4-(cyclopropylmethyl)piperazin-1-yl)methyl)-3-methylbenzylamino)-2-(2,6-dioxopiperidin-3-yl)isoindoline-1,3-dione], the IC50 is 200 to 500 nM.

For `O=C1CCC(N2C(=O)c3cccc(NCc4ccc(CN5CCC6(CCC6)CC5)cc4)c3C2=O)C(=O)N1` (centres unmarked) [Cpd 23, 4-(4-(7-azaspiro[3.5]nonan-7-ylmethyl)benzylamino)-2-(2,6-dioxopiperidin-3-yl)isoindoline-1,3-dione], the IC50 was less than 200 nM. As to `Cc1cc(CNc2cccc3c2C(=O)N(C2CCC(=O)NC2=O)C3=O)ccc1CN1CC(c2cccc(C#N)c2)C1` (centres unmarked) [Cpd 52, 3-(1-(4-((2-(2,6-dioxopiperidin-3-yl)-1,3-dioxoisoindolin-4-ylamino)methyl)-2-mtehylbenzyl)azetidin-3-yl)benzonitrile], the IC50 was less than 200 nM.

For the molecule `CC(C)(C)C1CCN(Cc2ccc(CNc3cccc4c3C(=O)N(C3CCC(=O)NC3=O)C4=O)cc2)CC1` (centres unmarked) [Cpd 37, 4-(4-((4-tert-butylpiperidin-1-yl)methyl)benzylamino)-2-(2,6-dioxopiperidin-3-yl)isoindoline-1,3-dione], the IC50 was less than 200 nM.

Take `O=C1CCC(N2C(=O)c3cccc(NCc4ccc(CN5CCC(n6cccn6)CC5)c(F)c4)c3C2=O)C(=O)N1` (centres unmarked) [Cpd 106, 4-(4-((4-(1H-pyrazol-1-yl)piperidin-1-yl)methyl)-3-fluorobenzylamino)-2-(2,6-dioxopiperidin-3-yl)isoindoline-1,3-dione]: the IC50 fell in the range of 200 to 500 nM. `C[C@@H]1CN(c2ccc(C#N)cc2Cl)CCN1Cc1ccc(CNc2cccc3c2C(=O)N(C2CCC(=O)NC2=O)C3=O)cc1` (stereo partly drawn) [Cpd 62, 3-chloro-4-((3R)-4-(4-((2-(2,6-dioxopiperidin-3-yl)-1,3-dioxoisoindolin-4-ylamino)methyl)benzyl)-3-methylpiperazin-1-yl)benzonitrile]: the IC50 is less than 200 nM.

`Cc1cc(CNc2cccc3c2C(=O)N(C2CCC(=O)NC2=O)C3=O)ccc1CN1CCCOCC1` (centres unmarked) [Cpd 244, 4-(4-((1,4-oxazepan-4-yl)methyl)-3-methylbenzylamino)-2-(2,6-dioxopiperidin-3-yl)isoindoline-1,3-dione]: the IC50 lay in the range of 501 to 750 nM. Regarding `O=C1CCC(N2C(=O)c3cccc(NCc4ccc(CN5CCN(c6cnccn6)CC5)cc4)c3C2=O)C(=O)N1` (centres unmarked) [Cpd 185, 2-(2,6-dioxopiperidin-3-yl)-4-(4-((4-(pyrazin-2-yl)piperazin-1-yl)methyl)benzylamino)isoindoline-1,3-dione], the IC50 is 200 to 500 nM. Take `CC(C)S(=O)(=O)C1CCN(Cc2ccc(CNc3cccc4c3C(=O)N(C3CCC(=O)NC3=O)C4=O)c(F)c2)CC1` (centres unmarked) [Cpd 174, 2-(2,6-dioxopiperidin-3-yl)-4-(2-fluoro-4-((4-(isopropylsulfonyl)piperidin-1-yl)methyl)benzylamino)isoindoline-1,3-dione]: the IC50 was less than 200 nM.

With `Cc1cc(CNc2cccc3c2C(=O)N(C2CCC(=O)NC2=O)C3=O)ccc1CN1CCC(C(F)F)CC1` (centres unmarked) [Cpd 48, 4-(4-((4-(difluoromethyl)piperidin-1-yl)methyl)-3-methylbenzylamino)-2-(2,6-dioxopiperidin-3-yl)isoindoline-1,3-dione], the IC50 fell in the range of 200 to 500 nM.

For the molecule `CC(C)(C)C1CN(Cc2ccc(CNc3cccc4c3C(=O)N(C3CCC(=O)NC3=O)C4=O)cc2)C1` (centres unmarked) [Cpd 114, 4-(4-((3-tert-butylazetidin-1-yl)methyl)benzylamino)-2-(2,6-dioxopiperidin-3-yl)isoindoline-1,3-dione], the IC50 is less than 200 nM. On to `Cc1cc(CN2CCN(C(C)(C)C)CC2)ccc1CNc1cccc2c1C(=O)N(C1CCC(=O)NC1=O)C2=O` (centres unmarked) [Cpd 97, 4-(4-((4-tert-butylpiperazin-1-yl)methyl)-2-methylbenzylamino)-2-(2,6-dioxopiperidin-3-yl)isoindolline-1,3-dione], for which the IC50 is 501 to 750 nM.

`O=C1CCC(N2C(=O)c3cccc(NCc4ccc(CN5CC(C(F)(F)F)C5)cc4)c3C2=O)C(=O)N1` (centres unmarked) [Cpd 117, 2-(2,6-dioxopiperidin-3-yl)-4-(4-((3-(trifluoromethyl)azetidin-1-yl)methyl)benzylamino)isoindoline-1,3-dione]: the IC50 is 200 to 500 nM. `O=C1CCC(N2C(=O)c3cccc(NCc4ccc(CN5CCC(N6CCOCC6)CC5)cc4)c3C2=O)C(=O)N1` (centres unmarked) [Cpd 210, 2-(2,6-dioxopiperidin-3-yl)-4-(4-((4-morpholinopiperidin-1-yl)methyl)benzylamino)isoindoline-1,3-dione]: the IC50 fell in the range of 200 to 500 nM. Next, `N#Cc1cc(F)c(N2CCN(Cc3ccc(CNc4cccc5c4C(=O)N(C4CCC(=O)NC4=O)C5=O)cc3)CC2)c(Cl)c1` (centres unmarked) [Cpd 11, 3-chloro-4-(4-(4-((2-(2,6-dioxopiperidin-3-yl)-1,3-dioxoisoindolin-4-ylamino)methyl)benzyl)piperazin-1-yl)-5-fluorobenzonitrile]: 501 to 750 nM. In the case of `O=C1CCC(N2C(=O)c3cccc(NCc4ccc(CN5CCC(OCC6CC6)CC5)cc4)c3C2=O)C(=O)N1` (centres unmarked) [Cpd 127, 4-(4-((4-(cyclopropylmethoxy)piperidin-1-yl)methyl)benzylamino)-2-(2,6-dioxopiperidin-3-yl)isoindoline-1,3-dione], the IC50 is 751 to 1000 nM. For `Cc1cc(CNc2cccc3c2C(=O)N(C2CCC(=O)NC2=O)C3=O)ccc1CN1CCN(c2ccnc(C(N)=O)c2)CC1` (centres unmarked) [Cpd 190, 4-(4-(4-((2-(2,6-dioxopiperidin-3-yl)-1,3-dioxoisoindolin-4-ylamino)methyl)-2-methylbenzyl)piperazin-1-yl)picolinamide], the IC50 was 200 to 500 nM. Turning to `N#Cc1ccc(C2CN(Cc3ccc(CNc4cccc5c4C(=O)N(C4CCC(=O)NC4=O)C5=O)cc3)C2)cc1` (centres unmarked) [Cpd 7, 4-(1-(4-((2-(2,6-dioxopiperidin-3-yl)-1,3-dioxoisoindolin-4-ylamino)methyl)benzyl)azetidin-3-yl)benzonitrile], the IC50 was less than 200 nM.

`CCC1(OC)CCN(Cc2ccc(CNc3cccc4c3C(=O)N(C3CCC(=O)NC3=O)C4=O)c(F)c2)CC1` (centres unmarked) [Cpd 156, 2-(2,6-dioxopiperidin-3-yl)-4-(4-((4-ethyl-4-methoxypiperidin-1-yl)methyl)-2-fluorobenzylamino)isoindoline-1,3-dione]: the IC50 is less than 200 nM. `Cc1cc(CNc2cccc3c2C(=O)N(C2CCC(=O)NC2=O)C3=O)ccc1CN1CC(N2[C@H](C)COC[C@@H]2C)C1` (stereo partly drawn) [Cpd 240, 4-(4-((3-((3S,5R)-3,5-dimethylmorpholino)azetidin-1-yl)methyl)-3-methylbenzylamino)-2-(2,6-dioxopiperidin-3-yl)isoindolinne-1,3-dione]: the IC50 was in the range of 200 to 500 nM. Take `O=C1CCC(N2C(=O)c3cccc(NCc4ccc(CN5CCC(F)(c6ccccn6)CC5)cc4)c3C2=O)C(=O)N1` (centres unmarked) [Cpd 19, 2-(2,6-dioxopiperidin-3-yl)-4-(4-((4-fluoro-4-(pyridin-2-yl)piperidin-1-yl)methyl)benzylamino)isoindoline-1,3-dione]: the IC50 lay within 501 to 750 nM.

For `Cc1cc(CN2CC(c3ccc(C#N)cc3)C2)ccc1CNc1cccc2c1C(=O)N(C1CCC(=O)NC1=O)C2=O` (centres unmarked) [Cpd 105, 4-(1-(4-((2-(2,6-dioxopiperidin-3-yl)-1,3-dioxoisoindoliln-4-ylamino)methyl)-3-methylbenzyl)azetidin-3-yl)benzonitrile], the IC50 was less than 200 nM.
